Data: paper PMC8330742, “New benzothieno[2,3-c]pyridines as non-steroidal CYP17 inhibitors: design, synthesis, anticancer screening, apoptosis induction, and in silico ADME profile studies” (Journal of Enzyme Inhibition and Medicinal Chemistry, 2021)

Assays:
[1] = tested on: NCI-H226; assay: NCI-60 SRB screen; format: cell-based, human; details: Homo sapiens; single dose 10^−5 M; NCI-H226, Non-small cell lung carcinoma; read-out: Growth inhibition (%)
[2] = tested on: IGROV1; assay: NCI-60 SRB screen; format: cell-based, human; details: Homo sapiens, IGROV-1; single dose 10^−5 M; IGROV1, Ovarian cancer; read-out: Growth inhibition (%)
[3] = tested on: 786-0; assay: NCI-60 SRB screen; format: cell-based; details: Homo sapiens; single dose 10^−5 M; 786-0, Renal cancer; read-out: Growth inhibition (%)
[4] = tested on: KM12; assay: NCI-60 SRB screen; format: cell-based, human; details: Homo sapiens; single dose 10^−5 M; KM12, Colon cancer; read-out: Growth inhibition (%)
[5] = tested on: NCI-H322M; assay: NCI-60 SRB screen; format: cell-based, human; details: Homo sapiens, single dose 10^−5 M, Non-small cell lung carcinoma, read-out: Growth inhibition (%)
[6] = tested on: CAKI-1; assay: NCI-60 SRB screen; format: cell-based, human; details: Homo sapiens; single dose 10^−5 M; CAKI-1, Renal cancer; read-out: Growth inhibition (%)
[7] = tested on: SK-MEL-28; assay: NCI-60 SRB screen; format: cell-based; details: Homo sapiens; single dose 10^−5 M; SK-MEL-28, Melanoma; read-out: Growth inhibition (%)
[8] = tested on: MALME-3M; assay: NCI-60 SRB screen; format: cell-based, human; details: Homo sapiens, single dose 10^−5 M, Melanoma, read-out: Growth inhibition (%)
[9] = tested on: panel of 60 cancer cell lines; assay: NCI-60 SRB screen, mean or range over the panel; format: cell-based, human; details: Homo sapiens; mean over the cell lines; single dose 10^−5 M; read-out: Mean growth inhibition (%)
[10] = tested on: SF-268; assay: NCI-60 SRB screen; format: cell-based, human; details: Homo sapiens; single dose 10^−5 M; SF-268, CNS cancer; read-out: Growth inhibition (%)
[11] = tested on: CCRF-CEM; assay: NCI-60 SRB screen; format: cell-based; details: Homo sapiens, single dose 10^−5 M, Leukaemia, read-out: Growth inhibition (%)
[12] = tested on: K-562; assay: NCI-60 SRB screen; format: cell-based, human; details: Homo sapiens, K562; single dose 10^−5 M; K-562, Leukaemia; read-out: Growth inhibition (%)
[13] = tested on: OVCAR-4; assay: NCI-60 SRB screen; format: cell-based, human; details: Homo sapiens; single dose 10^−5 M; OVCAR-4, Ovarian cancer; read-out: Growth inhibition (%)
[14] = tested on: ACHN; assay: NCI-60 SRB screen; format: cell-based; details: Homo sapiens, single dose 10^−5 M, Renal cancer, read-out: Growth inhibition (%)
[15] = tested on: TK-10; assay: NCI-60 SRB screen; format: cell-based, human; details: Homo sapiens; single dose 10^−5 M; TK-10, Renal cancer; read-out: Growth inhibition (%)
[16] = tested on: SK-MEL-5; assay: NCI-60 SRB screen; format: cell-based, human; details: Homo sapiens; single dose 10^−5 M; SK-MEL-5, Melanoma; read-out: Growth inhibition (%)
[17] = tested on: EKVX; assay: NCI-60 SRB screen; format: cell-based, human; details: Homo sapiens, single dose 10^−5 M, Non-small cell lung carcinoma, read-out: Growth inhibition (%)
[18] = tested on: SN12C; assay: NCI-60 SRB screen; format: cell-based, human; details: Homo sapiens, SN12C; single dose 10^−5 M; SN 12 C, Renal cancer; read-out: Growth inhibition (%)
[19] = tested on: OVCAR-8; assay: NCI-60 SRB screen; format: cell-based, human; details: Homo sapiens; single dose 10^−5 M; OVCAR-8, Ovarian cancer; read-out: Growth inhibition (%)
[20] = tested on: HCT-15; assay: NCI-60 SRB screen; format: cell-based, human; details: Homo sapiens; single dose 10^−5 M; HCT-15, Colon cancer; read-out: Growth inhibition (%)
[21] = tested on: LOX IMVI; assay: NCI-60 SRB screen; format: cell-based, human; details: Homo sapiens, single dose 10^−5 M, Melanoma, read-out: Growth inhibition (%)
[22] = tested on: COLO 205; assay: NCI-60 SRB screen; format: cell-based, human; details: Homo sapiens; single dose 10^−5 M; COLO 205, Colon cancer; read-out: Growth inhibition (%)
[23] = tested on: HOP-62; assay: NCI-60 SRB screen; format: cell-based, human; details: Homo sapiens; single dose 10^−5 M; HOP-62, Non-small cell lung carcinoma; read-out: Growth inhibition (%)
[24] = tested on: RXF 393; assay: NCI-60 SRB screen; format: cell-based, human; details: Homo sapiens; single dose 10^−5 M; RXF 393, Renal cancer; read-out: Growth inhibition (%)
[25] = tested on: NCI-H522; assay: NCI-60 SRB screen; format: cell-based, human; details: Homo sapiens; single dose 10^−5 M; NCI-H522, Non-small cell lung carcinoma; read-out: Growth inhibition (%)
[26] = tested on: HL-60(TB); assay: NCI-60 SRB screen; format: cell-based, human; details: Homo sapiens; single dose 10^−5 M; HL-60(TB), Leukaemia; read-out: Growth inhibition (%)
[27] = tested on: HCC-2998; assay: NCI-60 SRB screen; format: cell-based, human; details: Homo sapiens; single dose 10^−5 M; HCC-2998, Colon cancer; read-out: Growth inhibition (%)
[28] = tested on: NCI/ADR-RES; assay: NCI-60 SRB screen; format: cell-based, human; details: Homo sapiens, single dose 10^−5 M, Ovarian cancer, read-out: Growth inhibition (%)
[29] = tested on: MOLT-4; assay: NCI-60 SRB screen; format: cell-based; details: Homo sapiens; single dose 10^−5 M; MOLT-4, Leukaemia; read-out: Growth inhibition (%)
[30] = tested on: NCI-H460; assay: NCI-60 SRB screen; format: cell-based, human; details: Homo sapiens; single dose 10^−5 M; NCI-H460, Non-small cell lung carcinoma; read-out: Growth inhibition (%)
[31] = tested on: HT-29; assay: NCI-60 SRB screen; format: cell-based; details: Homo sapiens; single dose 10^−5 M; HT-29, Colon cancer; read-out: Growth inhibition (%)
[32] = tested on: UACC-62; assay: NCI-60 SRB screen; format: cell-based, human; details: Homo sapiens; single dose 10^−5 M; UACC-62, Melanoma; read-out: Growth inhibition (%)
[33] = tested on: SF-295; assay: NCI-60 SRB screen; format: cell-based, human; details: Homo sapiens; single dose 10^−5 M; SF-295, CNS cancer; read-out: Growth inhibition (%)
[34] = tested on: SK-MEL-2; assay: NCI-60 SRB screen; format: cell-based, human; details: Homo sapiens; single dose 10^−5 M; SK-MEL-2, Melanoma; read-out: Growth inhibition (%)
[35] = tested on: OVCAR-3; assay: NCI-60 SRB screen; format: cell-based, human; details: Homo sapiens; single dose 10^−5 M; OVCAR-3, Ovarian cancer; read-out: Growth inhibition (%)
[36] = tested on: UO-31; assay: NCI-60 SRB screen; format: cell-based, human; details: Homo sapiens; single dose 10^−5 M; UO-31, Renal cancer; read-out: Growth inhibition (%)
[37] = tested on: HOP-92; assay: NCI-60 SRB screen; format: cell-based, human; details: Homo sapiens; single dose 10^−5 M; HOP-92, Non-small cell lung carcinoma; read-out: Growth inhibition (%)
[38] = tested on: NCI-H23; assay: NCI-60 SRB screen; format: cell-based, human; details: Homo sapiens; single dose 10^−5 M; NCI-H23, Non-small cell lung carcinoma; read-out: Growth inhibition (%)
[39] = tested on: A549/ATCC; assay: NCI-60 SRB screen; format: cell-based, human; details: Homo sapiens, single dose 10^−5 M, Non-small cell lung carcinoma, read-out: Growth inhibition (%)
[40] = tested on: SK-OV-3; assay: NCI-60 SRB screen; format: cell-based, human; details: Homo sapiens; single dose 10^−5 M; SK-OV-3, Ovarian cancer; read-out: Growth inhibition (%)
[41] = tested on: HCT-116; assay: NCI-60 SRB screen; format: cell-based, human; details: Homo sapiens; single dose 10^−5 M; HCT-116, Colon cancer; read-out: Growth inhibition (%)
[42] = tested on: M14; assay: NCI-60 SRB screen; format: cell-based, human; details: Homo sapiens; single dose 10^−5 M; M14, Melanoma; read-out: Growth inhibition (%)
[43] = tested on: UACC-257; assay: NCI-60 SRB screen; format: cell-based, human; details: Homo sapiens; single dose 10^−5 M; UACC-257, Melanoma; read-out: Growth inhibition (%)
[44] = tested on: SW-620; assay: NCI-60 SRB screen; format: cell-based; details: Homo sapiens; single dose 10^−5 M; SW-620, Colon cancer; read-out: Growth inhibition (%)

## N#CC1=C(Cl)NC(c2cccc([N+](=O)[O-])c2)c2sc3c(F)cccc3c21 (stereo not shown) [Compound 7b, 3-Chloro-4-cyano-8-fluoro-1-(3-nitrophenyl)-1,2-dihydro[1]benzothieno [2,3-c]pyridine]
[1]
  inhibition at 10 µM: 9.35%
[2]
  inhibition at 10 µM: 15.6%
[3]
  inhibition at 10 µM: -13.5%
[4]
  inhibition at 10 µM: -0.12%
[5]
  inhibition at 10 µM: -3.17%
[6]
  inhibition at 10 µM: 19.8%
[7]
  inhibition at 10 µM: -11.2%
[8]
  inhibition at 10 µM: -2.31%
[9]
  inhibition at 10 µM: 2.14%
[10]
  inhibition at 10 µM: 6.82%
[11]
  inhibition at 10 µM: 3.22%
[12]
  inhibition at 10 µM: 8.8%
[13]
  inhibition at 10 µM: -3.81%
[14]
  inhibition at 10 µM: 4.44%
[15]
  inhibition at 10 µM: -53.8%
[16]
  inhibition at 10 µM: -20.1%
[17]
  inhibition at 10 µM: -1.36%
[18]
  inhibition at 10 µM: 4.43%
[19]
  inhibition at 10 µM: -4.49%
[20]
  inhibition at 10 µM: -7.25%
[21]
  inhibition at 10 µM: 1.46%
[22]
  inhibition at 10 µM: -14.6%
[23]
  inhibition at 10 µM: 9.67%
[24]
  inhibition at 10 µM: -15.8%
[25]
  inhibition at 10 µM: -1.38%
[26]
  inhibition at 10 µM: 1.47%
[27]
  inhibition at 10 µM: -18.2%
[28]
  inhibition at 10 µM: 1.73%
[29]
  inhibition at 10 µM: 7.93%
[30]
  inhibition at 10 µM: 2.14%
[31]
  inhibition at 10 µM: -3.29%
[32]
  inhibition at 10 µM: 8.84%
[33]
  inhibition at 10 µM: -4.69%
[34]
  inhibition at 10 µM: -2.07%
[35]
  inhibition at 10 µM: -1.67%
[36]
  inhibition at 10 µM: 32.5%
[37]
  inhibition at 10 µM: 10.4%
[38]
  inhibition at 10 µM: 4.25%
[39]
  inhibition at 10 µM: -10.1%
[40]
  inhibition at 10 µM: 2.24%
[41]
  inhibition at 10 µM: 11.7%
[42]
  inhibition at 10 µM: -5.17%
[43]
  inhibition at 10 µM: -9.77%
[44]
  inhibition at 10 µM: 3.78%

## CCN1CCN(C2=C(Cl)c3c(sc4c(F)cccc34)C(c3cccc([N+](=O)[O-])c3)N2)CC1 (stereo not shown) [Compound 8a, 4-Chloro-3–(4-ethylpiperzin-1-yl)-8-fluoro-1-(3-nitrophenyl)-1,2-dihydro [1]benzothieno[2,3-c]pyridine]
[1]
  inhibition at 10 µM: 17%
[2]
  inhibition at 10 µM: 23.8%
[3]
  inhibition at 10 µM: -7.31%
[4]
  inhibition at 10 µM: -1.16%
[5]
  inhibition at 10 µM: -1.6%
[6]
  inhibition at 10 µM: 21.9%
[7]
  inhibition at 10 µM: -10.8%
[8]
  inhibition at 10 µM: 1.57%
[9]
  inhibition at 10 µM: -0.2%
[10]
  inhibition at 10 µM: 7.38%
[11]
  inhibition at 10 µM: 1.89%
[12]
  inhibition at 10 µM: 13.2%
[13]
  inhibition at 10 µM: 3.25%
[14]
  inhibition at 10 µM: 9.21%
[15]
  inhibition at 10 µM: -41.7%
[16]
  inhibition at 10 µM: -14.1%
[17]
  inhibition at 10 µM: 4.5%
[18]
  inhibition at 10 µM: 2.25%
[19]
  inhibition at 10 µM: 2.09%
[20]
  inhibition at 10 µM: 2.5%
[21]
  inhibition at 10 µM: 6.7%
[22]
  inhibition at 10 µM: -11.9%
[23]
  inhibition at 10 µM: 3.76%
[24]
  inhibition at 10 µM: -2.44%
[25]
  inhibition at 10 µM: 14.3%
[26]
  inhibition at 10 µM: -9.32%
[27]
  inhibition at 10 µM: -2.53%
[28]
  inhibition at 10 µM: -1.63%
[29]
  inhibition at 10 µM: 5.94%
[30]
  inhibition at 10 µM: 0.6%
[31]
  inhibition at 10 µM: 2.3%
[32]
  inhibition at 10 µM: 11.6%
[33]
  inhibition at 10 µM: 0.4%
[34]
  inhibition at 10 µM: 3.85%
[35]
  inhibition at 10 µM: 1.03%
[36]
  inhibition at 10 µM: 35.8%
[37]
  inhibition at 10 µM: 10.7%
[38]
  inhibition at 10 µM: 7.1%
[39]
  inhibition at 10 µM: 1.8%
[40]
  inhibition at 10 µM: 1.74%
[41]
  inhibition at 10 µM: 15%
[42]
  inhibition at 10 µM: 6.73%
[43]
  inhibition at 10 µM: -7.62%
[44]
  inhibition at 10 µM: 4.03%
